Measurements published in patent publication US8207159B2, “Use of galanthamine for the treatment of pathological manifestations of the central nervous system based on intoxications with psychotropic substances” (priority 2001, dated 2012).

What was measured:
rats = assay: Animal experiments: administration of galanthamine to rats, cognitive abilities; assay type: in vivo, rat; details: restoration did not occur, or occurred only considerably later, in untreated control animals
Source text: (§1) A further advantage in this connexion is in particular that better control over the addictive behaviour is made possible, so that the risk of relapse is reduced.

[1] = system: chronically dependent alcoholics; assay: Clinical studies on chronically dependent alcoholics, cognitive performance; assay type: in vivo, human
Source text: as §1

COc1ccc2c3c1O[C@H]1C[C@@H](O)C=C[C@@]31CCN(C)C2 [galanthamine, 4a,5,9,10,11,12-hexahydro-3-methoxy-11-methyl-6-H-benzofuro-(3a,3,2-ef)-(2)-benzazepin-6-ol]
recovery of cognitive abilities (rats): recovery of cognitive abilities
cognitive performance of the subjects [1]: general improvement in the cognitive performance
